Data on 24 molecules can be found in US20240116912A1, “COMPOUNDS AND METHODS FOR MODULATING FXR” (Terns Pharmaceuticals, Inc., priority 2020, published 2024).

SMILES strings stand for the structures.

Experiment [1] has as its target full length human FXR protein (Homo sapiens (Human), UniProt Q96RI1). Briefly: FXR cellular assay (FXR-SRCP β-gal enzyme fragment complementation in CHO-K1 cells, chemiluminescence). In kind it is cell-based. The settings on record: CHO-K1 cells with SRCP-EA and ProLink-labeled FXR, 0-10 micromolar compound, 37° C. for 6h, read-out: EC50 FXR-cell Luminescence/. Put shortly: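 CHO-K1 cells stably expressing ProLink-tagged full-length FXR and SRCP-EA treated with compound (0-10 micromolar, 1% DMSO) for 6 h at 37 °C. Ligand-driven FXR-coactivator binding reconstitutes β-gal; chemiluminescence read after 1 h detection reagent at room temperature.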

Experiment [2] concerns the target ligand binding domain (LBD) of recombinant human FXR (Homo sapiens (Human), UniProt Q96RI1). Briefly: FXR cell free coactivator (SRC-1) recruitment assay, TR-FRET. Conditions: FXR LBD (amino acids 244-476) with labeled SRC-1 domain, 25° C. for 60 minutes, activity relative to CDCA maximum; read-out: EC50 FXR- Biochemical TR-FRET/μM. The method in brief:
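Purified SF9-expressed FXR LBD (aa 244-476) was incubated with compounds (0-10 micromolar) and labeled SRC-1 interaction domain in TR-FRET coregulator buffer G, 60 min at 25° C, 1.2% DMSO. Activity at each concentration was taken as percent of maximal CDCA response to build dose-response curves.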
In general terms: In TR-FRET formats the signal depends on donor and acceptor labels being close together.

Chain of ligand binding domain (LBD) of recombinant human FXR (Q96RI1 254-486): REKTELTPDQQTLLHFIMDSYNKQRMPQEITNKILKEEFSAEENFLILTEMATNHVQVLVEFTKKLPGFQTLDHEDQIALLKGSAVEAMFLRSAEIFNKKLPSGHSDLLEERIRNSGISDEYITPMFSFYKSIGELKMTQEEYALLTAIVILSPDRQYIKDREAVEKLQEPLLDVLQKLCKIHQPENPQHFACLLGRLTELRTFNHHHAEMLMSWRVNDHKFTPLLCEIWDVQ
Chain of ligand binding domain (LBD) of recombinant human FXR (Q15788 whole entry partner, the tested form may be a part): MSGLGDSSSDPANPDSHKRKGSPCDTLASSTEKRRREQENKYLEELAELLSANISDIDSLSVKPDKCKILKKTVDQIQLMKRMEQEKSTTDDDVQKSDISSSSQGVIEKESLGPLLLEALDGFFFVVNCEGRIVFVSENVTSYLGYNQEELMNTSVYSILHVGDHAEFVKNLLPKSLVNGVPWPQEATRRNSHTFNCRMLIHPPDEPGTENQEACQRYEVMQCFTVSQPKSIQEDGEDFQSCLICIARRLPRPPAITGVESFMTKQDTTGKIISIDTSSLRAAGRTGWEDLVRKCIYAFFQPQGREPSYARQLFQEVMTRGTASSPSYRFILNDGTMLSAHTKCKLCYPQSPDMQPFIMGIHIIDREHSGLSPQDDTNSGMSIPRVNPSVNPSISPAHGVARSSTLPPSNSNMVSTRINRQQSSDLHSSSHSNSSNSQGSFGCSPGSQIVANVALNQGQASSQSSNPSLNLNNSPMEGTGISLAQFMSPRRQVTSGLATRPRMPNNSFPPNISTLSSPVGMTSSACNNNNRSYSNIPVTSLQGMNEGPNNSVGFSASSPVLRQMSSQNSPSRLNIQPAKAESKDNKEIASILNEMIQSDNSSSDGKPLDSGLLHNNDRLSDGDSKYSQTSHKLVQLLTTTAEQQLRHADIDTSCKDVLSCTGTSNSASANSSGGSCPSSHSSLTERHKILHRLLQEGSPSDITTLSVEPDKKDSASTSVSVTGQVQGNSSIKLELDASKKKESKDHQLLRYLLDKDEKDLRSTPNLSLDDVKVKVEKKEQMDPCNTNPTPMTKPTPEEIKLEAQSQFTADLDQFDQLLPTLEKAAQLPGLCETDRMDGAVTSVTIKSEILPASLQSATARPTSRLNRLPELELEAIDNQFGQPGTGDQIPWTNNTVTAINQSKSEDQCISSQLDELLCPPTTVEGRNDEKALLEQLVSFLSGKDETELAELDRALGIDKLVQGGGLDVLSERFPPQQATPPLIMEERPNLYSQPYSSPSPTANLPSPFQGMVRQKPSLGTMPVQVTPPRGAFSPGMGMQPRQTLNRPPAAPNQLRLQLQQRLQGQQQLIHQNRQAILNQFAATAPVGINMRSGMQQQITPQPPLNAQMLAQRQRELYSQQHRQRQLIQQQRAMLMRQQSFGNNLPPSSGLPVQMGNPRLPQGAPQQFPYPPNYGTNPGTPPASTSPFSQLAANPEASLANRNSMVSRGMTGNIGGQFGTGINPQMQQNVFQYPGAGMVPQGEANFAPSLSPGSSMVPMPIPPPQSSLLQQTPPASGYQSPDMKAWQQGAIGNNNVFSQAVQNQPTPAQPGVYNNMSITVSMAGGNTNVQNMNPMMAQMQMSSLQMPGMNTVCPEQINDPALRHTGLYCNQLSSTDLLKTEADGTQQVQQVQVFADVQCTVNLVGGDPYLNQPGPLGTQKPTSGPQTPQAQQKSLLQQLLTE
Chain of full length human FXR protein (Q96RI1 whole entry, the tested form may be a part): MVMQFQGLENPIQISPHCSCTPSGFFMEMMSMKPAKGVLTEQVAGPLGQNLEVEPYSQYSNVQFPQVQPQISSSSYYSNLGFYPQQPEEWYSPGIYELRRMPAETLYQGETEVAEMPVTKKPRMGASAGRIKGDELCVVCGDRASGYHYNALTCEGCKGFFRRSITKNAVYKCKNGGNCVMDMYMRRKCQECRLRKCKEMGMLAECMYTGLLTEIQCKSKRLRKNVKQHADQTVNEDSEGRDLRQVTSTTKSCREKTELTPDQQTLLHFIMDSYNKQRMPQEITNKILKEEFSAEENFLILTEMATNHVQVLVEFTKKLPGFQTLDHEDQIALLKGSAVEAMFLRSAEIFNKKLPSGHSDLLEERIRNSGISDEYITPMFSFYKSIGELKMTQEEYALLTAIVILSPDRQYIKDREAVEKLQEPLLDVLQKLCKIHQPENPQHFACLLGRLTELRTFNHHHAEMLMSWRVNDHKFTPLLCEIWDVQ

For `C[C@@H]1C[C@H](OCc2c(-c3c(F)cccc3F)noc2C2CC2)CCN1c1ccc(-c2noc(=O)[nH]2)cn1` [Example 73, 3-(6-((2R,4R)-4-((5-cyclopropyl-3-(2,6-difluorophenyl)isoxazol-4-yl)methoxy)-2-methylpiperidin-1-yl)pyridin-3-yl)-1,2,4-oxadiazol-5(4H)-one], the EC50 came out at 350 nM in experiment [1] and 0.0476 µM in experiment [2].

In the case of `O=c1[nH]nc(-c2ccc(N3CCC(OCc4c(-c5ccccc5OC(F)(F)F)noc4C4CC4)CC3)cc2)o1` [Example 51, 5-(4-(4-((5-cyclopropyl-3-(2-(trifluoromethoxy)phenyl)isoxazol-4-yl)methoxy)piperidin-1-yl)phenyl)-1,3,4-oxadiazol-2(3H)-one], the EC50 came to 1290 nM in experiment [1] and 0.325 µM in experiment [2].

For the molecule `O=c1[nH]nc(-c2ccc(N3[C@@H]4CC[C@H]3C[C@@H](OCc3c(-c5ccccc5OC(F)(F)F)noc3C3CC3)C4)nc2)o1` [Example 68, 5-(6-((1R,3r,5S)-3-((5-cyclopropyl-3-(2-(trifluoromethoxy)phenyl)isoxazol-4-yl)methoxy)-8-azabicyclo[3.2.1]octan-8-yl)pyridin-3-yl)-1,3,4-oxadiazol-2(3H)-one], the EC50 amounted to 168 nM in experiment [1] and 0.0264 µM in experiment [2].

Turning to `C[C@@H]1CN(c2ccc(-c3noc(=O)[nH]3)cc2)CC[C@H]1OCc1c(-c2c(Cl)cccc2Cl)noc1C1CC1` [Example 34, 3-(4-((3R,4R)-4-((5-cyclopropyl-3-(2,6-dichlorophenyl)isoxazol-4-yl)methoxy)-3-methylpiperidin-1-yl)phenyl)-1,2,4-oxadiazol-5(4H)-one], the results for the EC50 in experiment [1] and in experiment [2] were 785 nM and 0.153 µM, respectively.

For the molecule `O=c1cc(-c2ccc(N3CCC(OCc4c(-c5c(Cl)cccc5Cl)noc4C4CC4)CC3)nc2)o[nH]1` [Example 59, 5-(6-(4-((5-cyclopropyl-3-(2,6-dichlorophenyl)isoxazol-4-yl)methoxy)piperidin-1-yl)pyridin-3-yl)isoxazol-3(2H)-one], the EC50 is 264 nM in experiment [1] and 0.0179 µM in experiment [2].

`O=c1[nH]nc(-c2ccc(N3CCC(OCc4c(-c5c(Cl)cccc5Cl)noc4C4CC4)CC3)cc2F)c(=O)[nH]1` [Example 41, 6-(4-(4-((5-cyclopropyl-3-(2,6-dichlorophenyl)isoxazol-4-yl)methoxy)piperidin-1-yl)-2-fluorophenyl)-1,2,4-triazine-3,5(2H,4H)-dione]: the EC50 in experiment [1] came to 244 nM; in experiment [2] it was 0.0584 µM.

As to `O=c1[nH]nc(-c2ccc(N3CCC(OCc4c(-c5ccccc5OC(F)(F)F)noc4C4CC4)CC3)cc2)c(=O)[nH]1` [Example 57, 6-(4-(4-((5-cyclopropyl-3-(2-(trifluoromethoxy)phenyl)isoxazol-4-yl)methoxy)piperidin-1-yl)phenyl)-1,2,4-triazine-3,5(2H,4H)-dione], the EC50 is 497 nM in experiment [1] and 0.0847 µM in experiment [2].

As to `O=c1[nH]c(-c2ccc(N3CCC(OCc4c(-c5c(Cl)cccc5Cl)noc4C4CC4)C(F)(F)C3)cc2)no1` (stereo not drawn) [Example 53, 3-(4-(4-((5-cyclopropyl-3-(2,6-dichlorophenyl)isoxazol-4-yl)methoxy)-3,3-difluoropiperidin-1-yl)phenyl)-1,2,4-oxadiazol-5(4H)-one], the figures for the EC50 in experiment [1] and in experiment [2] were 94.3 nM and 0.009 µM, respectively.

`O=c1[nH]c(-c2ccc(N3CCC(OCc4c(-c5c(Cl)cccc5Cl)noc4C4CC4)CC3)cn2)no1` [Example 9, 3-(5-(4-((5-cyclopropyl-3-(2,6-dichlorophenyl)isoxazol-4-yl)methoxy)piperidin-1-yl)pyridin-2-yl)-1,2,4-oxadiazol-5(4H)-one]: the figures for the EC50 in experiment [1] and in experiment [2] were 1590 nM and 0.175 µM, respectively.

Turning to `O=c1[nH]nc(-c2ccc(N3CCC(OCc4c(-c5ccccc5OC(F)(F)F)noc4C4CC4)CC3)nc2)o1` [Example 61, 5-(6-(4-((5-cyclopropyl-3-(2-(trifluoromethoxy)phenyl)isoxazol-4-yl)methoxy)piperidin-1-yl)pyridin-3-yl)-1,3,4-oxadiazol-2(3H)-one], the EC50 stood at 1920 nM in experiment [1] and 0.298 µM in experiment [2].

Consider `C[C@H]1C[C@H](OCc2c(-c3c(Cl)cccc3Cl)noc2C2CC2)CCN1c1ccc(-c2noc(=O)[nH]2)cc1` [Example 20, 3-(4-((2S,4R)-4-((5-cyclopropyl-3-(2,6-dichlorophenyl)isoxazol-4-yl)methoxy)-2-methylpiperidin-1-yl)phenyl)-1,2,4-oxadiazol-5(4H)-one], for which the EC50 in experiment [1] turned out to be 398 nM; in experiment [2], 0.114 µM.

For `COc1cccc(F)c1-c1noc(C2CC2)c1COC1CCN(c2ccc(-c3noc(=O)[nH]3)cc2)CC1` [Example 28, 3-(4-(4-((5-cyclopropyl-3-(2-fluoro-6-methoxyphenyl)isoxazol-4-yl)methoxy)piperidin-1-yl)phenyl)-1,2,4-oxadiazol-5(4H)-one], the EC50 in experiment [1] was 1610 nM; in experiment [2] it was 0.149 µM.

In the case of `O=c1cc(-c2ccc(N3[C@@H]4CC[C@H]3C[C@@H](OCc3c(-c5ccccc5OC(F)(F)F)noc3C3CC3)C4)nc2)o[nH]1` [Example 69, 5-(6-((1R,3r,5S)-3-((5-cyclopropyl-3-(2-(trifluoromethoxy)phenyl)isoxazol-4-yl)methoxy)-8-azabicyclo[3.2.1]octan-8-yl)pyridin-3-yl)isoxazol-3(2H)-one], the EC50 was 57.6 nM in experiment [1] and 0.0095 µM in experiment [2].

With `O=c1[nH]c(-c2ccc(N3CCCC(OCc4c(-c5c(F)cccc5F)noc4C4CC4)CC3)cc2)no1` (stereo not drawn) [Example 49, 3-(4-(4-((5-cyclopropyl-3-(2,6-difluorophenyl)isoxazol-4-yl)methoxy)azepan-1-yl)phenyl)-1,2,4-oxadiazol-5(4H)-one], the results for the EC50 in experiment [1] and in experiment [2] were 149 nM and 0.0117 µM, respectively.

Turning to `O=c1[nH]c(-c2ccc(N3CCC(OCc4c(-c5ccccc5OC(F)(F)F)noc4C4CC4)C(F)(F)C3)cc2)no1` (stereo not drawn) [Example 54, 3-(4-(4-((5-cyclopropyl-3-(2-(trifluoromethoxy)phenyl)isoxazol-4-yl)methoxy)-3,3-difluoropiperidin-1-yl)phenyl)-1,2,4-oxadiazol-5(4H)-one], the EC50 in experiment [1] amounted to 715 nM; in experiment [2], 0.0376 µM.

With `O=c1[nH]c(-c2ccc(N3CCC(OCc4c(-c5c(Cl)cccc5Cl)noc4C4CC4)CC3)c(F)c2)no1` [Example 39, 3-(4-(4-((5-cyclopropyl-3-(2,6-dichlorophenyl)isoxazol-4-yl)methoxy)piperidin-1-yl)-3-fluorophenyl)-1,2,4-oxadiazol-5(4H)-one], the values for the EC50 in experiment [1] and in experiment [2] were 154 nM and 0.0161 µM, respectively.

Turning to `Cc1cc(N2CCC(OCc3c(-c4c(Cl)cccc4Cl)noc3C3CC3)CC2)ccc1-c1noc(=O)[nH]1` [Example 11, 3-(4-(4-((5-cyclopropyl-3-(2,6-dichlorophenyl)isoxazol-4-yl)methoxy)piperidin-1-yl)-2-methylphenyl)-1,2,4-oxadiazol-5(4H)-one], the results for the EC50 in experiment [1] and in experiment [2] were 280 nM and 0.0219 µM, respectively.

With `O=c1cc(-c2ccc(N3CCC(OCc4c(-c5c(Cl)cccc5Cl)noc4C4CC4)CC3)cc2)o[nH]1` [Example 16, 5-(4-(4-((5-cyclopropyl-3-(2,6-dichlorophenyl)isoxazol-4-yl)methoxy)piperidin-1-yl)phenyl)isoxazol-3(2H)-one], the EC50 in experiment [1] came to 195 nM; in experiment [2], 0.024 µM.

For the molecule `O=c1[nH]c(-c2csc(N3CCC(OCc4c(-c5c(Cl)cccc5Cl)noc4C4CC4)CC3)c2)no1` [Example 38, 3-(5-(4-((5-cyclopropyl-3-(2,6-dichlorophenyl)isoxazol-4-yl)methoxy)piperidin-1-yl)thiophen-3-yl)-1,2,4-oxadiazol-5(4H)-one], the EC50 was found to be 263 nM in experiment [1] and 0.0286 µM in experiment [2].

On to `O=C(c1noc(=O)[nH]1)N1CCC(OCc2c(-c3c(Cl)cccc3Cl)noc2C2CC2)CC1` [Example 1, 3-(4-((5-cyclopropyl-3-(2,6-dichlorophenyl)isoxazol-4-yl)methoxy)piperidine-1-carbonyl)-1,2,4-oxadiazol-5(4H)-one], for which the EC50 in experiment [1] stood at 1130 nM; in experiment [2], 3.18 µM.

Consider `O=c1[nH]c(-c2ccc(N3CCC(OCc4c(-c5ccccc5Cl)noc4C4CC4)CC3)cc2)no1` [Example 44, 3-(4-(4-((3-(2-chlorophenyl)-5-cyclopropylisoxazol-4-yl)methoxy)piperidin-1-yl)phenyl)-1,2,4-oxadiazol-5(4H)-one], for which the EC50 in experiment [1] was 371 nM; in experiment [2], 0.0213 µM.

For `O=c1[nH]c(-c2ccc(N3CCC(OCc4c(-c5c(Cl)cccc5Cl)noc4C4CC4)CC3)cc2Cl)no1` [Example 14, 3-(2-chloro-4-(4-((5-cyclopropyl-3-(2,6-dichlorophenyl)isoxazol-4-yl)methoxy)piperidin-1-yl)phenyl)-1,2,4-oxadiazol-5(4H)-one], the EC50 stood at 64 nM in experiment [1] and 0.0085 µM in experiment [2].

Take `O=c1cn[nH]c(=O)n1-c1ccc(N2CCC(OCc3c(-c4c(Cl)cccc4Cl)noc3C3CC3)CC2)nc1` [Example 4, 4-(6-(4-((5-cyclopropyl-3-(2,6-dichlorophenyl)isoxazol-4-yl)methoxy)piperidin-1-yl)pyridin-3-yl)-1,2,4-triazine-3,5(2H,4H)-dione]: the results for the EC50 in experiment [1] and in experiment [2] were 1470 nM and 0.22 µM, respectively.

`O=c1[nH]c(-c2cccc(N3CCC(OCc4c(-c5c(Cl)cccc5Cl)noc4C4CC4)CC3)c2)no1` [Example 7, 3-(3-(4-((5-cyclopropyl-3-(2,6-dichlorophenyl)isoxazol-4-yl)methoxy)piperidin-1-yl)phenyl)-1,2,4-oxadiazol-5(4H)-one]: the figures for the EC50 in experiment [1] and in experiment [2] were 1230 nM and 0.105 µM, respectively.
